According to patent US7902252B2, “Inhibitors of D-amino acid oxidase” (Sepracor, Inc., priority 2007, dated 2011):

What was measured:
Human DAAO = Human DAAO (Homo sapiens, UniProt P14920); experiment: D-Amino Acid Oxidase enzyme assay (D-serine, horseradish peroxidase/Amplex Red coupled fluorescence); type: biochemical; conditions: D-serine 5 mM, pH 7.4
How it was run: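 D-serine substrate at 5 mM (Km), 50 mM sodium phosphate pH 7.4; H2O2 output coupled via 4 U/mL horseradish peroxidase and 50 μM Amplex Red to resorufin fluorescence. Reaction started with enzyme; H2O2 control checked coupling interference; IC50 from inhibition curves.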

[1] = tested on: D-serine levels in the cerebellum; experiment: In vivo elevation of D-serine levels in the cerebellum; set-up: species or system Mice (C57BL/6); conditions: mice, intraperitoneal;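 also: Cutoffs are cerebellum D-serine in nmol/g wet tissue weight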
Procedure: […] Animals are sacrificed at either 2 or 6 h post compound administration with an N=3 per time point. At sacrifice, trunk blood is collected into tubes containing potassium EDTA, which are then centrifuged to permit isolation of plasma. The cerebellum is dissected from each animal. Plasma and cerebellum samples are stored at −80° C. until samples are analyzed (LC/MS/MS).

Human DAAO, sequence (P14920 whole entry): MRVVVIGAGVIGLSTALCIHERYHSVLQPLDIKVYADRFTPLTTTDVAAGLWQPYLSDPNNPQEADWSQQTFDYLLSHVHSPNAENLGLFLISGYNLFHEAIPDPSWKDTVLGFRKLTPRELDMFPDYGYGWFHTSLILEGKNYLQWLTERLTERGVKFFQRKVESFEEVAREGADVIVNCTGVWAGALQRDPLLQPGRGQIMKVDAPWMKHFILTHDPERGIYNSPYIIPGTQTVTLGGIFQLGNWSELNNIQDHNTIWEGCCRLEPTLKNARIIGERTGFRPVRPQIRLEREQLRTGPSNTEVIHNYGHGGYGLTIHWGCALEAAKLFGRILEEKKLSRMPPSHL

SMILES | IC50 (Human DAAO) [µM] | Cerebellum D-serine at 2 hours ([1]; dose 30 mg/kg) | Cerebellum D-serine at 6 hours ([1]; dose 30 mg/kg) | Cerebellum D-serine at 2 hours ([1]; dose 60 mg/kg) | Cerebellum D-serine at 2 hours ([1]; dose 10 mg/kg) | Cerebellum D-serine at 6 hours ([1]; dose 10 mg/kg) | Cerebellum D-serine at 6 hours ([1]; dose 60 mg/kg)
O=C(O)c1cc2c([nH]1)CCC2c1cccc(F)c1 (single isomer, unassigned) [Compound 96, 4-(3-fluorophenyl)-1,4,5,6-tetrahydrocyclopenta[b]pyrrole-2-carboxylic acid] | ≤ 0.1 | (+) (2.5-4.9 = (+)) | (+) (2.5-4.9 = (+)) |  |  |  | 
O=C(O)c1cc2c([nH]1)CC1CC21 (single isomer, unassigned) [Compound 140, 1a,4,5,5a-tetrahydro-1H-4-aza-cyclopropa[α]pentalene-3-carboxylic acid] | ≤ 0.1 | (++) (>5 = (++)) | (++) (>5 = (++)) |  |  |  | 
O=C(O)c1cc2c([nH]1)CCC2Cc1ccc2ccccc2c1 (racemic) [Compound 78, 4-(naphthalen-2-ylmethyl)-1,4,5,6-tetrahydrocyclopenta[b]pyrrole-2-carboxylic acid] | ≤ 0.1 | (+) (2.5-4.9 = (+)) | (+) (2.5-4.9 = (+)) |  |  |  | 
O=C(O)c1cc2c([nH]1)CCC2Cc1ccc(Br)cc1 (single isomer, unassigned) [Compound 62, 4-(4-bromobenzyl)-1,4,5,6-tetrahydrocyclopenta[b]pyrrole-2-carboxylic acid] | ≤ 0.1 | (+) (2.5-4.9 = (+)) | (++) (>5 = (++)) |  |  |  | 
O=C(O)c1cc2c([nH]1)CCC2Cc1cccc(Br)c1 (single isomer, unassigned) [Compound 64, 4-(3-bromobenzyl)-1,4,5,6-tetrahydrocyclopenta[b]pyrrole-2-carboxylic acid] | ≤ 0.1 |  |  | (−) (<2.5 = (−)) |  |  | 
CCOC(=O)c1[nH]c2c(c1O)CCC2 [Compound 137, ethyl 3-hydroxy-1,4,5,6-tetrahydrocyclopenta[b]pyrrole-2-carboxylate] | > 100 | (+) (2.5-4.9 = (+)) | (+) (2.5-4.9 = (+)) |  |  |  | 
O=C(O)c1cc2c([nH]1)CCC2Cc1ccc(Cl)c(Cl)c1 (single isomer, unassigned) [Compound 59, 4-(3,4-dichlorobenzyl)-1,4,5,6-tetrahydrocyclopenta[b]pyrrole-2-carboxylic acid] | ≤ 0.1 |  |  |  | (+) (2.5-4.9 = (+)) | (+) (2.5-4.9 = (+)) | 
O=C(O)c1cc2c([nH]1)CCC2Cc1ccc(F)cc1 (racemic) [Compound 39, 4-(4-fluorobenzyl)-1,4,5,6-tetrahydrocyclopenta[b]pyrrole-2-carboxylic acid] | ≤ 0.1 | (+) (2.5-4.9 = (+)) | (+) (2.5-4.9 = (+)) |  |  |  | 
O=C(O)c1cc2c([nH]1)CCC2Cc1ccc(F)c(F)c1 (single isomer, unassigned) [Compound 44, 4-(3,4-difluorobenzyl)-1,4,5,6-tetrahydrocyclopenta[b]pyrrole-2-carboxylic acid] | ≤ 0.1 | (+) (2.5-4.9 = (+)) | (+) (2.5-4.9 = (+)) |  |  |  | 
O=C(O)c1cc2c([nH]1)CCC2 [Compound 1, 1,4,5,6-tetrahydro-cyclopenta[b]pyrrole-2-carboxylic acid] | ≤ 0.1 | (++) (>5 = (++)) | (++) (>5 = (++)) |  |  |  | 
O=C(O)c1cc2c([nH]1)CCC2Cc1cccc(Br)c1 (single isomer, unassigned) [Compound 65, 4-(3-bromobenzyl)-1,4,5,6-tetrahydrocyclopenta[b]pyrrole-2-carboxylic acid] | ≤ 100 | (++) (>5 = (++)) | (+) (2.5-4.9 = (+)) |  |  |  | 
O=C(O)c1cc2c([nH]1)CCC2Cc1cccc(-c2ccco2)c1 (single isomer, unassigned) [Compound 89, 4-(3-(furan-2-yl)benzyl)-1,4,5,6-tetrahydrocyclopenta[b]pyrrole-2-carboxylic acid] | ≤ 0.1 | (−) (<2.5 = (−)) |  |  |  |  | 
O=C(O)c1cc2c([nH]1)C(Cc1cc(F)cc(Cl)c1)CC2 (stereo not drawn) [Compound 124, 6-(3-chloro-5-fluorobenzyl)-1,4,5,6-tetrahydrocyclopenta[b]pyrrole-2-carboxylic acid] | ≤ 0.1 |  |  | (−) (<2.5 = (−)) |  |  | (−) (<2.5 = (−))
N#Cc1cccc(C2CCc3[nH]c(C(=O)O)cc32)c1 (stereo not drawn) [Compound 105, 4-(3-cyanophenyl)-1,4,5,6-tetrahydrocyclopenta[b]pyrrole-2-carboxylic acid] | ≤ 0.1 |  |  | (−) (<2.5 = (−)) |  |  | 
O=C(O)c1cc2c([nH]1)CCC2c1cc(F)cc(F)c1 (single isomer, unassigned) [Compound 100, 4-(3,5-difluorophenyl)-1,4,5,6-tetrahydrocyclopenta[b]pyrrole-2-carboxylic acid] | ≤ 0.1 | (+) (2.5-4.9 = (+)) | (+) (2.5-4.9 = (+)) |  |  |  | 
O=C(O)c1cc2c([nH]1)C(Cc1cccc(Cl)c1)CC2 (single isomer, unassigned) [Compound 123, 6-(3-chlorobenzyl)-1,4,5,6-tetrahydrocyclopenta[b]pyrrole-2-carboxylic acid] | ≤ 0.1 | (+) (2.5-4.9 = (+)) | (+) (2.5-4.9 = (+)) |  |  |  | 
O=C(O)c1cc2c([nH]1)C[C@@H]1C[C@H]21 (racemic) [Compound 138, ±(1aS,5aS)-1a,4,5,5a-tetrahydro-1H-4-aza-cyclopropa[α]pentalene-3-carboxylic acid] | ≤ 0.1 |  |  | (++) (>5 = (++)) |  |  | (++) (>5 = (++))
Cc1cc(F)ccc1CC1CCc2[nH]c(C(=O)O)cc21 (single isomer, unassigned) [Compound 53, 4-(4-fluoro-2-methylbenzyl)-1,4,5,6-tetrahydrocyclopenta[b]pyrrole-2-carboxylic acid] | ≤ 0.1 |  |  |  | (+) (2.5-4.9 = (+)) | (−) (<2.5 = (−)) | 
O=C(O)c1cc2c([nH]1)[C@@H]1C[C@@H]1C2 [Compound 146, (1aR,5aR)-1a,2,5,5a-tetrahydro-1H-2-aza-cyclopropa[α]pentalene-3-carboxylic acid] | ≤ 0.1 |  |  | (++) (>5 = (++)) |  |  | (++) (>5 = (++))
COc1cccc(CC2CCc3cc(C(=O)O)[nH]c32)c1 (single isomer, unassigned) [Compound 131, 6-(3-methoxybenzyl)-1,4,5,6-tetrahydrocyclopenta[b]pyrrole-2-carboxylic acid] | ≤ 0.1 | (+) (2.5-4.9 = (+)) | (+) (2.5-4.9 = (+)) |  |  |  | 
O=C(O)c1cc2c([nH]1)CCC2c1ccc(F)c(F)c1 (stereo not drawn) [Compound 97, 4-(3,4-difluorophenyl)-1,4,5,6-tetrahydrocyclopenta[b]pyrrole-2-carboxylic acid] | ≤ 0.1 |  |  | (+) (2.5-4.9 = (+)) |  |  | (+) (2.5-4.9 = (+))
